Source: PMC12063043, “Exploring Tyramine's Role in the Formation of Supramolecular Adducts with Nonsteroidal Anti‐Inflammatory Drugs” (Chemistry (Weinheim an Der Bergstrasse, Germany), 2025)
In brackets after ≈: the same amount, converted by molar mass.

Tests used:
[1] = Aqueous solubility tests by solution 1H NMR; conditions: for solubility at 3 days: deionized water, water, thermodynamic from solid
[2] = pKa of the co-former TYA and the APIs, and ΔpKa rule; format: physicochemical; conditions: heading: ΔpKa [= pKa – pKa]; for the adduct of the API (acid) with TYA (base)
[3] = ref PubChem; cited from earlier work

| SMILES | Increase in aqueous solubility of adduct versus pure API ([1]; aqueous solution, adduct versus pure API) | Aqueous solubility ([1]; deionized H2O, stirred 3 days, filtered, 1H NMR at 298 K with TSP internal standard, concentration of the drug in solution, average of three measurements ± standard deviation) | ΔpKa [2] | solubility at 3 days [1] | pKa [3] |
| --- | --- | --- | --- | --- | --- |
| NCCc1ccc(O)cc1.O=C(O)c1cc(-c2ccc(F)cc2F)ccc1O [DIF-TYA Form II] | 17 fold | 473 ± 79 µg/mL |  |  |  |
| CC(C(=O)O)c1ccc(-c2ccccc2)c(F)c1 (racemic) [FLU, (±)‐2‐(2‐fluorobiphenyl‐4‐yl)propionic acid] |  |  | 5.44 | 19 ± 2 µg/mL (≈ 77.8 µM) |  |
| O=C(O)c1cc(-c2ccc(F)cc2F)ccc1O [DIF, 2′,4′‐difluoro‐4‐hydroxy‐[1,1′‐biphenyl]‐3‐carboxylic acid] |  |  | 6.36 | 28 ± 2 µg/mL (≈ 112 µM) |  |
| NCCc1ccc(O)cc1 [TYA, 4‐(2‐aminoethyl)phenol] |  |  |  |  | 9.66^[ ^a ^] |
